Reference: ChEMBL document CHEMBL4732086, “Targeting nuclear protein TDP-43 by cell division cycle kinase 7 inhibitors: A new therapeutic approach for amyotrophic lateral sclerosis” (Eur J Med Chem, 2021)
Calls of active or inactive are those of the source. The calls are words filed in the database; no cut-off is given here.

Legend:
[1] = molecular target: Cyclin-dependent kinase 5/CDK5 activator 1 (Homo sapiens) (UniProt Q00535+Q15078); assay: Inhibition of recombinant full length human GST/His-tagged CDK5/p35 using serine/threonine-12 peptide as substrate at 10 uM incubated for 60 mins in presence of ATP by Z'-LYTE assay; assay type: protein-complex assay
[2] = molecular target: Serine/threonine-protein kinase pim-1 (Homo sapiens) (UniProt P11309); assay: Inhibition of recombinant human HIS-tagged PIM1 expressed in baculovirus expression system using serine/threonine-07 peptide as substrate at 10 uM by Z'-LYTE assay; conditions: time 60.0 min
Serine/threonine-protein kinase pim-1 (Homo sapiens), sequence (P11309 whole entry, looked up): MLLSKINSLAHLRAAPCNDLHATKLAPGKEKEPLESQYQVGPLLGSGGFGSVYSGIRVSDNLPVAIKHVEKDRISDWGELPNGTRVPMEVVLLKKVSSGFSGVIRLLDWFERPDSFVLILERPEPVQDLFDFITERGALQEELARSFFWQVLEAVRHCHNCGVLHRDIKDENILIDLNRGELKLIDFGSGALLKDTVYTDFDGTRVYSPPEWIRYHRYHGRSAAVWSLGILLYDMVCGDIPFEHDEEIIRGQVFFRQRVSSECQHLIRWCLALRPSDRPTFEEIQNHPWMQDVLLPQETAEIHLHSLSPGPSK

[3] = molecular target: Tyrosine-protein kinase Fyn (Homo sapiens) (UniProt P06241); assay: Inhibition of recombinant human His-tagged Fyn expressed in baculovirus expression system using Tyr 02 peptide as substrate at 10 uM incubated for 60 mins in presence of ATP by Z'-LYTE assay
[4] = molecular target: RAC-beta serine/threonine-protein kinase (Homo sapiens) (UniProt P31751); assay: Inhibition of recombinant full length human His-tagged AKT2 using serine/threonine-06 peptide as substrate at 10 uM incubated for 60 mins in presence of ATP by Z'-LYTE assay
[5] = molecular target: Platelet-derived growth factor receptor alpha (Homo sapiens) (UniProt P16234); assay: Inhibition of recombinant human GST-tagged PDGFRA expressed in baculovirus expression system using Tyr-04 peptide as substrate at 10 uM by Z'-LYTE assay; conditions: time 60.0 min
[6] = molecular target: cAMP-dependent protein kinase catalytic subunit alpha (Homo sapiens) (UniProt P17612); assay: Inhibition of recombinant human His-tagged PRKACA expressed in Escherichia coli expression system using serine/threonine-01 peptide as substrate at 10 uM by Z'-LYTE assay; conditions: time 60.0 min
[7] = molecular target: Mitogen-activated protein kinase 7 (Homo sapiens) (UniProt Q13164); assay: Inhibition of recombinant human full length GST-tagged MAPK7 expressed in baculovirus expression system using serine/threonine-04 peptide as substrate at 10 uM by Z'-LYTE assay; conditions: time 60.0 min
Mitogen-activated protein kinase 7 (Homo sapiens), sequence (Q13164 2-816 limits assumed): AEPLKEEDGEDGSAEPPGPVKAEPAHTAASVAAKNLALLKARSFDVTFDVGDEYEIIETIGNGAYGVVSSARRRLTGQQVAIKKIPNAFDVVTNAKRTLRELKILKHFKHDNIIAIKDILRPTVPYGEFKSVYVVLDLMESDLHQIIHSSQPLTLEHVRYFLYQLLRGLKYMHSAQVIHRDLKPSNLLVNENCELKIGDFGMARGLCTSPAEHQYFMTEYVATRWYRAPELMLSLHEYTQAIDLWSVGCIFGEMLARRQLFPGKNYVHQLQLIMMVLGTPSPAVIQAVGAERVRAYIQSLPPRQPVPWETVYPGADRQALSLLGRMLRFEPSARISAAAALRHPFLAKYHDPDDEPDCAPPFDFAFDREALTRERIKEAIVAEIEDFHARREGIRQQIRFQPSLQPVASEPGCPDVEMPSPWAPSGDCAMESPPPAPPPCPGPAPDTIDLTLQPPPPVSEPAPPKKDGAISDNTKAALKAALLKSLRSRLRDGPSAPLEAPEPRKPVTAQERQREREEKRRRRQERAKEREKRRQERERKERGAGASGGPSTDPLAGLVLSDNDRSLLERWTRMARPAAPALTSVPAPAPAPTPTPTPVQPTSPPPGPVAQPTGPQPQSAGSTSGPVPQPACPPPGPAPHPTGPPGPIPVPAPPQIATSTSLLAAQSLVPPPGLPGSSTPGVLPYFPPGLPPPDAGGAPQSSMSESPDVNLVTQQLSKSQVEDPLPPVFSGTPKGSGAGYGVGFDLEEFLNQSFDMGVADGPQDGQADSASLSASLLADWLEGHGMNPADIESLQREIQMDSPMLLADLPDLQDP

[8] = molecular target: T1, Mitogen-activated protein kinase 13 (Homo sapiens) (UniProt O15264); assay: Inhibition of recombinant human full length His-tagged MAPK13 expressed in baculovirus expression system using serine/threonine-03 peptide as substrate at 10 uM incubated for 60 mins in presence of ATP by Z'-LYTE assay
T1 sequence (whole entry): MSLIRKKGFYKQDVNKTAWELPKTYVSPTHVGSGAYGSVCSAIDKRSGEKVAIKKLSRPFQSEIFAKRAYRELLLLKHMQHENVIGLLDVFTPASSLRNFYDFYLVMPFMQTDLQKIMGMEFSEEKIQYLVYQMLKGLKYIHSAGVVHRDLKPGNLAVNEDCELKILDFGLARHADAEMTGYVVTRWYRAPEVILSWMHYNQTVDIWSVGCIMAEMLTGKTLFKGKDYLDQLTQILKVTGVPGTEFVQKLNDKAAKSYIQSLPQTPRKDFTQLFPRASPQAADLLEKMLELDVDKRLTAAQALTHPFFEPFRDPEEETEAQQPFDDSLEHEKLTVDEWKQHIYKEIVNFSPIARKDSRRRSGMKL

[9] = molecular target: T2, Dual specificity tyrosine-phosphorylation-regulated kinase 3 (Homo sapiens) (UniProt O43781); assay: Inhibition of recombinant human full length GST-tagged DYRK3 expressed in baculovirus expression system using serine/threonine-18 peptide as substrate at 10 uM incubated for 60 mins in presence of ATP by Z'-LYTE assay
T2 sequence (whole entry): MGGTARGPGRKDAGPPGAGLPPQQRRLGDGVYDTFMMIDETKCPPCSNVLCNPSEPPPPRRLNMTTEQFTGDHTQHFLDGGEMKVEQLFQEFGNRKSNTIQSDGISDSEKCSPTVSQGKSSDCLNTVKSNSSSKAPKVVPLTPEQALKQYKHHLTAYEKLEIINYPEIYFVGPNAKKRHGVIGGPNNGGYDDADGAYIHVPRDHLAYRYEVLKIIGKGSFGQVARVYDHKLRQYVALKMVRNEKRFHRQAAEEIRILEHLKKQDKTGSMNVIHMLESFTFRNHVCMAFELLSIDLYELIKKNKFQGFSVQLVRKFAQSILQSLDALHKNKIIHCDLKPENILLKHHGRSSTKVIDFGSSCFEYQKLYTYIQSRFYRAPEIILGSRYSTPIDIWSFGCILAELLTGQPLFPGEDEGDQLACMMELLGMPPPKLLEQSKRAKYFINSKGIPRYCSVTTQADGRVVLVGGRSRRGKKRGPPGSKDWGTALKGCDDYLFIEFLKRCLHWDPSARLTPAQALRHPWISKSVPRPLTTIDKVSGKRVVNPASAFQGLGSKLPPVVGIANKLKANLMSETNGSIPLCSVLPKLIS

[10] = molecular target: Casein kinase I isoform alpha (Homo sapiens) (UniProt P48729); assay: Inhibition of human CSNK1A1 expressed in baculovirus expression system using serine/threonine-11 peptide as substrate at 10 uM incubated for 60 mins in presence of ATP by Z'-LYTE assay
Casein kinase I isoform alpha (Homo sapiens), sequence (P48729 2-337 limits assumed): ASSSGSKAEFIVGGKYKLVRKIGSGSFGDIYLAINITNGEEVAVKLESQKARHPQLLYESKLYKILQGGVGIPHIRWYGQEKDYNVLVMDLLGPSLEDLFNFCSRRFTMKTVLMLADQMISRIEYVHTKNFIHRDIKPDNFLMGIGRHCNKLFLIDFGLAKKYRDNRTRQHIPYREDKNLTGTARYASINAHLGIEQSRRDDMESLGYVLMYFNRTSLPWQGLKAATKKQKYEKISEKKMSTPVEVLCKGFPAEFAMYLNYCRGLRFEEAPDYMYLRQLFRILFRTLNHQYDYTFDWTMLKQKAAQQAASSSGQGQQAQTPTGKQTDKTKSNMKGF

[11] = molecular target: Tyrosine-protein kinase ABL1 (Homo sapiens) (UniProt P00519); assay: Inhibition of recombinant full length human His-tagged ABL1 expressed in baculovirus expression system using tyrosine-2 peptide as substrate at 10 uM incubated for 60 mins in presence of ATP by Z'-LYTE assay
Tyrosine-protein kinase ABL1 (Homo sapiens), sequence (P00519 whole entry): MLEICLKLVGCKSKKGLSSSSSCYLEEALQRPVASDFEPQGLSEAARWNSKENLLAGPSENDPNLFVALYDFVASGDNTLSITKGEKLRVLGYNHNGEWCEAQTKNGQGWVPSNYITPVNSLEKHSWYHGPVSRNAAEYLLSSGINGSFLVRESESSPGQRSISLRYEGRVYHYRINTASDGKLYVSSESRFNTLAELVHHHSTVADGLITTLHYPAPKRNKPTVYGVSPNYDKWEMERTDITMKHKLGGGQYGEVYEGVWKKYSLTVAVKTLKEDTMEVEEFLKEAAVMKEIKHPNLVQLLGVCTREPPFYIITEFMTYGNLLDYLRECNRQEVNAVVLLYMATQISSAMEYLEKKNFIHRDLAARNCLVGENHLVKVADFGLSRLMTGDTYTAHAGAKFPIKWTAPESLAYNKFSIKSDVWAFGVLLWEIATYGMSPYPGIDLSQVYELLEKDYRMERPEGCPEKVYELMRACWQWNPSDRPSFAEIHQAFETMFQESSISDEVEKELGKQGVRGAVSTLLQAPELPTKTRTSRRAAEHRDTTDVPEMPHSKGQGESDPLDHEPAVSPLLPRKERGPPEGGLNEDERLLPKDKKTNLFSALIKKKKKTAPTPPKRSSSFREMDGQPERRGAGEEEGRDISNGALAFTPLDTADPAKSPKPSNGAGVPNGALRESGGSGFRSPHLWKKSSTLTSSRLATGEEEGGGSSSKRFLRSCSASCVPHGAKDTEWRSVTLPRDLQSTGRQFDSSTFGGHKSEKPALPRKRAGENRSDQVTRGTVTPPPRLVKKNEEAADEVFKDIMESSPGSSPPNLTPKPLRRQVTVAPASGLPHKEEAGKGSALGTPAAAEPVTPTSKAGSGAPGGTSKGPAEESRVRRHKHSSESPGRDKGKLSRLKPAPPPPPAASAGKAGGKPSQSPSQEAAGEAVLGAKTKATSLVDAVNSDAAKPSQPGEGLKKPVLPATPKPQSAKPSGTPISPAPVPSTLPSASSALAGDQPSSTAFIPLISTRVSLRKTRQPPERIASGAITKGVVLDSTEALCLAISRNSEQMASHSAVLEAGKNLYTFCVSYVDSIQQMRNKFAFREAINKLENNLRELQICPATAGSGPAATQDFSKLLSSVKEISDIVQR

[12] = molecular target: Dual specificity tyrosine-phosphorylation-regulated kinase 1B (Homo sapiens) (UniProt Q9Y463); assay: Inhibition of recombinant human full length GST-tagged DYRK1B expressed in baculovirus expression system using serine/threonine-18 peptide as substrate at 10 uM incubated for 60 mins in presence of ATP by Z'-LYTE assay
[13] = molecular target: Dual specificity tyrosine-phosphorylation-regulated kinase 1A (Homo sapiens) (UniProt Q13627); assay: Inhibition of recombinant human full length GST-tagged DYRK1A expressed in baculovirus expression system using serine/threonine-18 peptide as substrate at 10 uM incubated for 60 mins in presence of ATP by Z'-LYTE assay
[14] = molecular target: Maternal embryonic leucine zipper kinase (Homo sapiens) (UniProt Q14680); assay: Inhibition of recombinant human full length GST-tagged MELK expressed in baculovirus expression system using serine/threonine-21 peptide as substrate at 10 uM by Z'-LYTE assay; conditions: time 60.0 min
Maternal embryonic leucine zipper kinase (Homo sapiens), sequence (Q14680 whole entry, looked up, canonical isoform): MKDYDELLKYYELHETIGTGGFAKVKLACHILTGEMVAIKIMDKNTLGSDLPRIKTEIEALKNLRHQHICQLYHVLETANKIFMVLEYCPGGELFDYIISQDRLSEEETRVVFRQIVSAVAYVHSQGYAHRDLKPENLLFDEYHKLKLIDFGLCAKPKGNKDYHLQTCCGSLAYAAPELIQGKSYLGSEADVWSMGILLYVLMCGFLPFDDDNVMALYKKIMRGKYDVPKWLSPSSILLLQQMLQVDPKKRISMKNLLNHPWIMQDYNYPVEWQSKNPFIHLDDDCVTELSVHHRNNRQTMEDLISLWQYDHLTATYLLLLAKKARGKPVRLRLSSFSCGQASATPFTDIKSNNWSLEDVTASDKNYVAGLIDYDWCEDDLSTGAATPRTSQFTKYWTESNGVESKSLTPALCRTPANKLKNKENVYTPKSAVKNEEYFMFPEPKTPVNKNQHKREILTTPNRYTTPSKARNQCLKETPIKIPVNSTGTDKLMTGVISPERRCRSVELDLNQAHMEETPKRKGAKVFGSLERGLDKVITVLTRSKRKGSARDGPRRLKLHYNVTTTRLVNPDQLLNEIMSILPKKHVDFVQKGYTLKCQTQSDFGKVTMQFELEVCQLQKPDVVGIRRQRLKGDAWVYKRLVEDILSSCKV

[15] = molecular target: Casein kinase I isoform epsilon (Homo sapiens) (UniProt P49674); assay: Inhibition of human CSNK1E expressed in baculovirus expression system using serine/threonine-11 peptide as substrate at 10 uM incubated for 60 mins in presence of ATP by Z'-LYTE assay
[16] = molecular target: Calcium/calmodulin-dependent protein kinase type 1D (Homo sapiens) (UniProt Q8IU85); assay: Inhibition of recombinant full length human His-tagged CAMK1delta expressed in baculovirus expression system using serine/threonine-25 peptide as substrate at 10 uM incubated for 60 mins in presence of ATP by Z'-LYTE assay
Calcium/calmodulin-dependent protein kinase type 1D (Homo sapiens), sequence (Q8IU85 whole entry, looked up): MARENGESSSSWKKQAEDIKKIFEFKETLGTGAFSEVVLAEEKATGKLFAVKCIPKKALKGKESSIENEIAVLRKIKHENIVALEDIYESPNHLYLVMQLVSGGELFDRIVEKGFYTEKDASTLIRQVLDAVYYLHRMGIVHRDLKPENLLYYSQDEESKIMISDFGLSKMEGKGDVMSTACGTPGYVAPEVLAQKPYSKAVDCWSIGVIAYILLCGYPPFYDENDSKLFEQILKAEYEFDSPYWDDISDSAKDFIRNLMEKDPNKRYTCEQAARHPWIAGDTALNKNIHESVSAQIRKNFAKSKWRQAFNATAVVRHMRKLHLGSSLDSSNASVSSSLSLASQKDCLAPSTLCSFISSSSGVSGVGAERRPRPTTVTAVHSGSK

[17] = molecular target: Homeodomain-interacting protein kinase 1 (Homo sapiens) (UniProt Q86Z02); assay: Inhibition of recombinant human full length GST-tagged HIPK1 expressed in baculovirus expression system using serine/threonine-09 peptide as substrate at 10 uM incubated for 60 mins in presence of ATP by Z'-LYTE assay
Homeodomain-interacting protein kinase 1 (Homo sapiens), sequence (Q86Z02 whole entry, looked up): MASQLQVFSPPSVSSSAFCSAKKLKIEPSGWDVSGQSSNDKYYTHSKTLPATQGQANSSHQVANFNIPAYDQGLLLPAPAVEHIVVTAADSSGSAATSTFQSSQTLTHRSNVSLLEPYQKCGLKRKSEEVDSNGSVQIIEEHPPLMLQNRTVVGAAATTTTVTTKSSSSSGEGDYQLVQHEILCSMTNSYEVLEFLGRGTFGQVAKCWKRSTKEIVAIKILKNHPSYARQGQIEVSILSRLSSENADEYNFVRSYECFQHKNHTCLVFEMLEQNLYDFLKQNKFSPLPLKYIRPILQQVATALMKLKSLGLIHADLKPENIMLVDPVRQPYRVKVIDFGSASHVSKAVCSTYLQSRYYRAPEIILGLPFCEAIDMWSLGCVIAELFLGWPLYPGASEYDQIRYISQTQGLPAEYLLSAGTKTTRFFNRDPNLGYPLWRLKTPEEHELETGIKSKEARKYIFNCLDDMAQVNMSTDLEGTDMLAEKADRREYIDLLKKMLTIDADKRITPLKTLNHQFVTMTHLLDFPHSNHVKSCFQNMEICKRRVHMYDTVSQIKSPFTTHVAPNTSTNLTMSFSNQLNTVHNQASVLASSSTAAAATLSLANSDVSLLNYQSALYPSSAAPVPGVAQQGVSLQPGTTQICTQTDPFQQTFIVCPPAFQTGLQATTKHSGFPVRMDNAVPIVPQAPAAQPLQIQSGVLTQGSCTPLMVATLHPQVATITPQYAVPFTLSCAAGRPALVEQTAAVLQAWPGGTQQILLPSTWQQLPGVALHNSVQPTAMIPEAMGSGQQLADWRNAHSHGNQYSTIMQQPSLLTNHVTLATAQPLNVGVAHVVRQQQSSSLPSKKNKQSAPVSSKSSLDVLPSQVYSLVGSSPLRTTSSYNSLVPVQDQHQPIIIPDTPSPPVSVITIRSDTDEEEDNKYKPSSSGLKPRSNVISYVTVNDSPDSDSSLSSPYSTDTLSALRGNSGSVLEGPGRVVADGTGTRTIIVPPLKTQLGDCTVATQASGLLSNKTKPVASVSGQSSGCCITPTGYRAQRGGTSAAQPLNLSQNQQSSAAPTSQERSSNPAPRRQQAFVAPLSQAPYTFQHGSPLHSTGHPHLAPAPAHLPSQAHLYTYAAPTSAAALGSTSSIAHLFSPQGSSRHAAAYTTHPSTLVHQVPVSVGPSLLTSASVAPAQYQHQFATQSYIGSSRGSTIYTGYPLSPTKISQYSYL

inhibition [1] | inhibition [2] | inhibition [3] | inhibition [4] | inhibition [5] | inhibition [6] | inhibition [7] | inhibition [8] | inhibition [9] | inhibition [10] | inhibition [11] | inhibition [12] | inhibition [13] | inhibition [14] | inhibition [15] | inhibition [16] | inhibition [17] | SMILES
inactive | inactive | inactive | inactive | inactive | inactive | inactive | inactive | inactive | inactive | inactive | inactive | inactive | inactive | inactive | inactive | inactive | c1ccc(CSc2ncnc3[nH]cnc23)cc1
inactive | inactive | inactive | inactive | inactive | inactive | inactive | inactive | inactive | inactive | inactive | inactive | inactive | inactive | inactive | inactive | inactive | Clc1cccc(CSc2ncnc3[nH]cnc23)c1

SMILES | inhibition [1] | inhibition [2] | inhibition [3] | inhibition [4] | inhibition [5] | inhibition [6] | inhibition [7] | inhibition [8] | inhibition [9] | inhibition [10] | inhibition [11] | inhibition [12] | inhibition [13] | inhibition [14] | inhibition [15] | inhibition [16] | inhibition [17]
Brc1ccccc1CSc1ncnc2[nH]cnc12 | inactive | inactive | inactive | inactive | inactive | inactive | inactive | inactive | inactive | inactive | inactive | inactive | inactive | inactive | inactive | inactive | inactive
